Results on 19 molecules are retold here after patent US8686044B2, “Amide derivative, pest control agent containing the amide derivative, and use of the amide derivative” (Mitsui Chemicals Agro, Inc., priority 2008, dated 2014).

What all share (format): in vivo
The test system of assay [1] is Choristoneura magnanima. The assay is described as follows: Pesticidal test against Choristoneura magnanima (artificial feed dip). As to conditions: 144 h, 2-stage larvae, examined after 6 days, 25° C., read-out: pesticidal rate; for pest or weed control at 10 ppm: concentration 10 ppm; for pest or weed control at 1 ppm: concentration 1 ppm. On the procedure:
(§1) Pesticidal Test against Choristoneura magnanima A thinly sliced artificial feed was immersed for 30 seconds in a chemical solution in which a test compound had been prepared at a predetermined concentration, and air-dried, and then put into a 7 cm polyethylene cup having a filter paper laid on the bottom thereof, and 2-stage larvae of Choristoneura magnanima were released. They were left to stand in a thermostatic chamber at 25° C., and the numbers of the living pests and the dead pests were examined after 6 days. The test was carried out with five larvae per group in two replicates. Further, the above compound (A) was used as a comparative compound.

The test system of assay [2] is Helicoverpa armigera. Put plainly: Pesticidal test against Helicoverpa armigera (cabbage leaf disk dip). As to conditions: foliar, 72 h, 2-stage larvae, examined after 3 days, 25° C., read-out: pesticidal rate; for pest or weed control at 1 ppm: concentration 1 ppm. On the procedure: as §1, with “Helicoverpa armigera” for “Choristoneura magnanima”, “cabbage leaf disk” for “thinly sliced artificial feed”, “air-dried. The leaf disk was” for “air-dried, and then”, “6-hole plastic” for “7 cm polyethylene”, “released with one insect being released per hole.” for “released.”, “3” for “6”

For assay [3], the system named is Laodelphax striatellus. Put plainly: Pesticidal test against Laodelphax striatellus (rice seedling spray). The settings on record: 144 h, concentration 100 ppm, 3-stage larvae, examined after 6 days, 25° C., read-out: pesticidal rate. An outline of the steps:
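Rice seedlings sprayed with 2.5 ml acetone solution of compound at a predetermined concentration, air-dried, then infested with third-stage Laodelphax striatellus larvae in capped water-containing tubes at 25 °C. Living and dead insects counted after 6 days; ten larvae per group, two replicates.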

Assay [4] has as its system Spodoptera litura. The assay is described as follows: Pesticidal test against Spodoptera litura (cabbage leaf dip). As to conditions: foliar, 144 h, 2-stage larvae, examined after 6 days, 25° C., read-out: pesticidal rate; for pest or weed control at 1 ppm: concentration 1 ppm. An outline of the steps:
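Cabbage leaf pieces dipped 30 seconds in compound solution at a predetermined concentration and air-dried, then offered to second-stage larvae, five per group in two replicates. Held at 25° C. Living and dead larvae counted after 6 days.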

Assay [5] concerns Plutella xylostella. The assay is described as follows: Pesticidal test against Plutella xylostella (cabbage leaf dip). The settings on record: foliar, 144 h, 2-stage larvae, examined after 6 days, 25° C., read-out: pesticidal rate; for pest or weed control at 1 ppm: concentration 1 ppm. Summed up:
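Second-stage larvae (5 per group, two replicates) were released onto air-dried cabbage leaf discs that had been immersed for 30 seconds in compound solution at a set concentration. Mortality was scored after 6 days at 25° C.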

The test system of assay [6] is Adoxophyes honmai. The assay is described as follows: Pesticidal test against Adoxophyes honmai (artificial feed dip). As to conditions: 144 h, 2-stage larvae, examined after 6 days, 25° C., read-out: pesticidal rate; for pest or weed control at 1 ppm: concentration 1 ppm; for pest or weed control at 10 ppm: concentration 10 ppm. On the procedure: as §1, with “Adoxophyes honmai” for “Choristoneura magnanima”

Assay [7] concerns Musca domestica. Put plainly: Pesticidal test against Musca domestica (petri dish dry film). The settings on record: 24 h, concentration 100 ppm, female adults, examined after 1 day, 25° C., read-out: pesticidal rate. An outline of the steps:
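Female adult houseflies were confined at 25° C in capped 9 cm petri dishes coated with an air-dried film from 1 ml acetone solution of compound (predetermined concentration). Mortality was scored 1 day later, two replicates of five per group.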

On to `O=C(Nc1c(I)cc(C(F)(C(F)(F)F)C(F)(F)F)cc1C(F)(F)F)c1cccc(NC(=O)c2c(F)cccc2F)c1` [6-446], for which, in assay [1], the pest or weed control at 10 ppm was not below 70%. Besides, the pest or weed control at 1 ppm in assay [2], in assay [4], in assay [5] and in assay [6] was not below 70% each time. The pest or weed control at 100 ppm in assay [3] is not below 70%.

`O=C(Nc1c(I)cc(C(F)(C(F)(F)F)C(F)(F)C(F)(F)F)cc1I)c1cccc(NC(=O)c2cccnc2Cl)c1` (stereo not drawn) [6-90]: the pest or weed control at 1 ppm in assay [1], in assay [2], in assay [4], in assay [5] and in assay [6] was not below 70% in each case. In addition, the pest or weed control at 100 ppm in assay [3] was not below 70%.

`O=C(Nc1c(I)cc(C(F)(C(F)(F)F)C(F)(F)C(F)(F)F)cc1I)c1cccc(NC(=O)c2c(F)cccc2F)c1` (stereo not drawn) [6-80]: the pest or weed control at 1 ppm in assay [1], in assay [2], in assay [4], in assay [5] and in assay [6] was not below 70% throughout. For the same molecule, the pest or weed control at 100 ppm in assay [3] is not below 70%.

Regarding `O=C(Nc1cccc(C(=O)Nc2c(Br)cc(C(F)(C(F)(F)F)C(F)(F)C(F)(F)F)cc2Br)c1F)c1ccccc1` (stereo not drawn) [6-1182], the pest or weed control at 1 ppm in assay [1], in assay [4], in assay [5] and in assay [6] was not below 70% each time. The pest or weed control at 100 ppm in assay [3] was not below 70%.

Regarding `O=C(Nc1cccc(C(=O)Nc2c(Br)cc(C(F)(C(F)(F)F)C(F)(F)C(F)(F)F)cc2C(F)(F)F)c1)c1ccc(F)cc1` (stereo not drawn) [6-349], the pest or weed control at 1 ppm in assay [1], in assay [2], in assay [4], in assay [5] and in assay [6] was not below 70% in each case.

Take `COc1cc(C(F)(C(F)(F)F)C(F)(F)F)cc(C)c1NC(=O)c1cccc(N(C)C(=O)c2ccccc2)c1` [compound (A), reference compound]: the pest or weed control at 10 ppm in assay [1], in assay [2] (concentration 10 ppm), in assay [4] (concentration 10 ppm), in assay [5] (concentration 10 ppm) and in assay [6] was not above 50% throughout.

On to `CN(C(=O)c1cccc(C#N)c1)c1cccc(C(=O)Nc2c(Br)cc(C(F)(C(F)(F)F)C(F)(F)F)cc2Br)c1F` [7-1124], for which the pest or weed control at 1 ppm in assay [1], in assay [4] and in assay [5] was not below 70% throughout. In addition, the pest or weed control at 100 ppm in assay [3] is not below 70%. Also, the pest or weed control at 10 ppm in assay [6] is not below 70%.

Regarding `CN(C(=O)c1ccc(F)cc1)c1cccc(C(=O)Nc2c(I)cc(C(F)(C(F)(F)F)C(F)(F)F)cc2I)c1F` [7-1263], the pest or weed control at 1 ppm in assay [1], in assay [2], in assay [4] and in assay [5] was not below 70% each time. Moreover, the pest or weed control at 100 ppm in assay [3] is not below 70%. Moreover, the pest or weed control at 10 ppm in assay [6] was not below 70%.

As to `CN(C(=O)c1cc(C#N)cc(C#N)c1)c1cccc(C(=O)Nc2c(Br)cc(C(F)(C(F)(F)F)C(F)(F)F)cc2C(F)(F)F)c1F` [7-1605], the pest or weed control at 1 ppm in assay [1], in assay [2], in assay [4], in assay [5] and in assay [6] was not below 70% each time. In addition, the pest or weed control at 100 ppm in assay [3] was not below 70%.

Take `O=C(Nc1cccc(C(=O)Nc2c(Br)cc(C(F)(C(F)(F)F)C(F)(F)F)cc2Br)c1F)c1ccccc1` [6-1104]: the pest or weed control at 1 ppm in assay [1], in assay [2], in assay [4] and in assay [5] was not below 70% each time. Also, the pest or weed control at 100 ppm in assay [3] was not below 70%. For the same molecule, the pest or weed control at 10 ppm in assay [6] is not below 70%.

As to `O=C(Nc1cccc(C(=O)Nc2c(Br)cc(C(F)(C(F)(F)F)C(F)(F)F)cc2C(F)(F)F)c1F)c1ccccc1` [6-1574], the pest or weed control at 1 ppm in assay [1], in assay [2], in assay [4], in assay [5] and in assay [6] was not below 70% in each case. Moreover, in assay [3], the pest or weed control at 100 ppm is not below 70%.

Take `N#Cc1ccc(C(=O)Nc2cccc(C(=O)Nc3c(I)cc(C(F)(C(F)(F)F)C(F)(F)C(F)(F)F)cc3C(F)(F)F)c2F)cc1` (stereo not drawn) [6-1829]: the pest or weed control at 1 ppm in assay [1], in assay [2], in assay [4] and in assay [5] was not below 70% each time. Also, the pest or weed control at 100 ppm in assay [7] and in assay [3] was not below 70% each time.

Consider `O=C(Nc1cccc(C(=O)Nc2c(Br)cc(C(F)(C(F)(F)F)C(F)(F)C(F)(F)F)cc2C(F)(F)F)c1F)c1ccc(F)cc1` (stereo not drawn) [6-1655], for which the pest or weed control at 1 ppm in assay [1], in assay [2], in assay [4], in assay [5] and in assay [6] was not below 70% throughout. In assay [3], the pest or weed control at 100 ppm is not below 70%.

Consider `CN(C(=O)c1ccccc1)c1cccc(C(=O)Nc2c(I)cc(C(F)(C(F)(F)F)C(F)(F)F)cc2I)c1F` [7-1260], for which the pest or weed control at 1 ppm in assay [1], in assay [4] and in assay [5] was not below 70% throughout. In assay [3], the pest or weed control at 100 ppm was not below 70%. Also, the pest or weed control at 10 ppm in assay [6] is not below 70%.

In the case of `O=C(Nc1c(Br)cc(C(F)(C(F)(F)F)C(F)(F)C(F)(F)F)cc1C(F)(F)F)c1cccc(NC(=O)c2c(F)cccc2F)c1F` (stereo not drawn) [6-1674], the pest or weed control at 1 ppm in assay [1], in assay [2], in assay [4], in assay [5] and in assay [6] was not below 70% throughout. The pest or weed control at 100 ppm in assay [3] is not below 70%.

On to `CN(C(=O)c1ccc(C#N)cc1)c1cccc(C(=O)Nc2c(I)cc(C(F)(C(F)(F)F)C(F)(F)C(F)(F)F)cc2C(F)(F)F)c1` (stereo not drawn) [7-523], for which the pest or weed control at 1 ppm in assay [1], in assay [2], in assay [4] and in assay [5] was not below 70% in each case. In assay [6], the pest or weed control at 10 ppm was not below 70%.

On to `CN(C(=O)c1ccc(F)nc1)c1cccc(C(=O)Nc2c(Br)cc(C(F)(C(F)(F)F)C(F)(F)F)cc2C(F)(F)F)c1F` [7-1616], for which the pest or weed control at 1 ppm in assay [1], in assay [2], in assay [4] and in assay [5] was not below 70% each time. The pest or weed control at 100 ppm in assay [3] is not below 70%. In addition, the pest or weed control at 10 ppm in assay [6] was not below 70%.

In the case of `O=C(Nc1cccc(C(=O)Nc2c(Br)cc(C(F)(C(F)(F)F)C(F)(F)F)cc2C(F)(F)F)c1)c1ccc(F)cc1` [6-271], the pest or weed control at 1 ppm in assay [1], in assay [2], in assay [4] and in assay [5] was not below 70% each time. Also, the pest or weed control at 100 ppm in assay [3] is not below 70%. The pest or weed control at 10 ppm in assay [6] was not below 70%.

On to `CN(C(=O)c1ccc(C#N)cc1)c1cccc(C(=O)Nc2c(I)cc(C(F)(C(F)(F)F)C(F)(F)C(F)(F)F)cc2I)c1F` (stereo not drawn) [7-1359], for which the pest or weed control at 1 ppm in assay [1], in assay [2], in assay [4] and in assay [5] was not below 70% in each case. The pest or weed control at 100 ppm in assay [7] and in assay [3] was not below 70% in each case.
